“And” between values parts separate entries of the source, which are not always exact repeats. Equal values may be shown once. Blank lines part the entries; values can stand above or below the compound they belong to.
Tested on: 885724-159-R-J1-PDC complex spheroid viability
Test: Anticancer human tumor 885724-159-R-J1-PDC patient-derived pancreatic adenocarcinoma cell line growth inhibition [GQUAD]
Details: for viability, T/C: stronger effect = lower value
Description: DNA G-quadruplex Stabilizer Agents in Combinations in Complex Spheroids
A high-throughput screen of multi-cell type tumor spheroids was designed to identify active combinations of DNA G-quadruplex stabilizer agents and targeted small molecules. Complex spheroids include a stromal component modeled by human endothelial cells (HUVEC) and fibroblasts modeled by human mesenchymal stem cells (MSCs). The concentration ranges selected for each drug and investigational agent were based upon clinically achievable concentrations if the clinical Cmax of the agent was known.
Compounds. The drugs and investigational agents: pidnarulex (CX-5461; NSC782164), APTO-253 (NSC789042), BRACO-19 (NSC847499), peposertib (NSC802822), ceralasertib (NSC780249), elimusertib (NSC800525), camonsertib (NSC841442), AZD-1390 (NSC803789), olaparib (NSC753686), talazoparib (NSC767125), ART-558 (NSC835418), sotorasib (NSC818433), MRTX-1133 (NSC836407), SN-38 (NSC673596), topotecan (NSC609699), etoposide (NSC141540), doxorubicin (NSC123127), gemcitabine (NSC613327), 5-fluorouracil (NSC19893), paclitaxel (NSC125973), vemurafenib (NSC761431), panobinostat (NSC761190), R-306465 (JNJ-16241199; NSC773264), adavosertib (NSC754352), TP-3654 (NSC805149), carboplatin (NSC241240), KSQ-4279 (NSC840948), and staurosporine (NSC755774) were obtained from the National Cancer Institute (NCI) Developmental Therapeutics Program Chemical Repository (34). The FDA-approved anticancer drug set is available from the NCI Developmental Therapeutics Program. […] The stock solutions were prepared in dimethyl sulfoxide (DMSO, Sigma-Aldrich, St. Louis, MO, cat. D2650) at 800-fold the tested concentration and stored at -70 degrees C prior to their use. All drugs and investigational agents were tested over a range starting from a high concentration at or near the clinical Cmax and decreasing in half-log increments. If the clinical Cmax for an agent had not been determined, the highest concentration tested was 10 microM.
2.3 Cell Culture. All cells were maintained in an incubator at 37 degrees C and 5% CO2 with 95% humidity. The PDC lines were cultured according to standard operating procedures established by the NCI PDMR. All PDCs were thawed and cultured in Matrigel-coated flasks prepared with a working solution of 1X Ham's F-12 nutrient mix, without supplementation (Invitrogen, cat. 11765054), 100 U/mL penicillin-streptomycin (Invitrogen, cat. 15140122), and 2.5% Matrigel (Corning Inc., cat. 354248) for the first three passages. The 857933-349-R-J2-PDC line was cultured in 6C/Colon 1B media, which includes advanced DMEM/F-12 (Thermo Fisher Scientific, cat. 12634028), 10 mM HEPES (Thermo Fisher Scientific, cat. 15630080), 1X GlutaMAX supplement (Thermo Fisher Scientific, cat. 35050061), 0.1 mg/mL primocin (InvivoGen, cat. ant-pm-2), 10% defined fetal bovine serum, heat inactivated (HyClone Laboratories Inc., cat. SH30070.03HI), 50% L-WRN conditioned media (ATCC, cat. CRL-3276), 1.25 mM N-Acetyl-L-cysteine (Sigma-Aldrich, cat. A9165), 10 mM nicotinamide (Sigma-Aldrich, cat. N0636), 1X B-27 supplement (Thermo Fisher Scientific, cat. 17504044), 1X N-2 supplement (Thermo Fisher Scientific, cat. 17502048), 10 microM Y-27632 dihydrochloride (Tocris Bioscience, cat. 1254), and 50 ng/mL human EGF recombinant protein (Thermo Fisher Scientific, cat. PHG0311). The 485176-168-R4-J1-PDC line was cultured in Panc media, which includes all 6C/Colon 1B media components plus 100 ng/mL human FGF-10 (Thermo Fisher Scientific, cat. 100-26), 500 nM SB-431542 (Selleckchem, cat. S1067), and gastrin (Tocris, cat. 3006).
[…]

[1] = curve of first compound, second compound 0.0316 µM
[2] = curve of first compound, second compound 0.1 µM
[3] = curve of first compound, second compound 0.316 µM
[4] = curve of first compound, second compound 1 µM
[5] = curve of first compound, second compound 3.16 µM
[6] = curve of first compound, second compound 10 µM
[7] = second compound 0.0316 µM, first compound 0.0316 µM
[8] = second compound 0.0316 µM, first compound 0.1 µM
[9] = second compound 0.0316 µM, first compound 0.316 µM
[10] = second compound 0.0316 µM, first compound 1 µM
[11] = second compound 0.0316 µM, first compound 3.16 µM
[12] = second compound 0.0316 µM, first compound 10 µM
[13] = second compound 0.1 µM, first compound 0.0316 µM
[14] = second compound 0.1 µM, first compound 0.1 µM
[15] = second compound 0.1 µM, first compound 0.316 µM
[16] = second compound 0.1 µM, first compound 1 µM
[17] = second compound 0.1 µM, first compound 3.16 µM
[18] = second compound 0.1 µM, first compound 10 µM
[19] = second compound 0.316 µM, first compound 0.0316 µM
[20] = second compound 0.316 µM, first compound 0.1 µM
[21] = second compound 0.316 µM, first compound 0.316 µM
[22] = second compound 0.316 µM, first compound 1 µM
[23] = second compound 0.316 µM, first compound 3.16 µM
[24] = second compound 0.316 µM, first compound 10 µM
[25] = second compound 1 µM, first compound 0.0316 µM
[26] = second compound 1 µM, first compound 0.1 µM
[27] = second compound 1 µM, first compound 0.316 µM
[28] = second compound 1 µM, first compound 1 µM
[29] = second compound 1 µM, first compound 3.16 µM
[30] = second compound 1 µM, first compound 10 µM
[31] = second compound 3.16 µM, first compound 0.0316 µM
[32] = second compound 3.16 µM, first compound 0.1 µM
[33] = second compound 3.16 µM, first compound 0.316 µM
[34] = second compound 3.16 µM, first compound 1 µM
[35] = second compound 3.16 µM, first compound 3.16 µM
[36] = second compound 3.16 µM, first compound 10 µM
[37] = second compound 10 µM, first compound 0.0316 µM
[38] = second compound 10 µM, first compound 0.1 µM
[39] = second compound 10 µM, first compound 0.316 µM
[40] = second compound 10 µM, first compound 1 µM
[41] = second compound 10 µM, first compound 3.16 µM
[42] = second compound 10 µM, first compound 10 µM
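Further: spheroids exposed to agents for seven days before readout.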
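Wherever viability, T/C is given: percent of vehicle control viability where 100% = DMSO wells.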

Compound: CC(C)(O)C1CCC(Nc2ccc3ncc(-c4cccc(C(F)(F)F)c4)n3n2)CC1 (stereo unspecified) + CN(C)c1ccc(Nc2c3ccc(NC(=O)CCN4CCCC4)cc3nc3cc(NC(=O)CCN4CCCC4)ccc23)cc1
IC50 [1]: 2730 nM | IC50 [2]: 3140 nM | IC50 [3]: 1880 nM | IC50 [4]: 1620 nM | IC50 [5]: 764 nM | IC50 [6]: 1190 nM | viability, T/C [7]: 109% | viability, T/C [8]: 98% | viability, T/C [9]: 87% | viability, T/C [10]: 70.5% | viability, T/C [11]: 42.1% | viability, T/C [12]: 41.2% | viability, T/C [13]: 97.7% | viability, T/C [14]: 92.8% | viability, T/C [15]: 80.3% | viability, T/C [16]: 71.2% | viability, T/C [17]: 44.8% | viability, T/C [18]: 44.1% | viability, T/C [19]: 83.7% | viability, T/C [20]: 84.2% | viability, T/C [21]: 71.6% | viability, T/C [22]: 64.1% | viability, T/C [23]: 38% | viability, T/C [24]: 35.7% | viability, T/C [25]: 83.6% | viability, T/C [26]: 67.9% | viability, T/C [27]: 71.1% | viability, T/C [28]: 62.3% | viability, T/C [29]: 30.5% | viability, T/C [30]: 35.6% | viability, T/C [31]: 76.1% | viability, T/C [32]: 75.6% | viability, T/C [33]: 65.9% | viability, T/C [34]: 44.5% | viability, T/C [35]: 27.9% | viability, T/C [36]: 19.3% | viability, T/C [37]: 62% | viability, T/C [38]: 63.5% | viability, T/C [39]: 57.3% | viability, T/C [40]: 55.7% | viability, T/C [41]: 20.6% | viability, T/C [42]: 7.17%

IC50 (compound alone, run of 02/20/2024): > 10000 nM
Compound: Cc1cnc(CNC(=O)c2c(=O)c3ccc(N4CCCN(C)CC4)nc3n3c2sc2ccccc23)cn1
viability, T/C (compound 0.316 µM): 98.5% [middle of 12 runs] | viability, T/C (compound 1 µM): 87.6% [middle of 11 runs] | viability, T/C (compound 3.16 µM): 80.1% [middle of 12 runs] | viability, T/C (compound 10 µM): 77.7% [middle of 12 runs]

Compound: C#Cc1c(F)ccc2cc(O)cc(-c3ncc4c(N5CC6CCC(C5)N6)nc(OCC56CCCN5CC(F)C6)nc4c3F)c12 (stereo unspecified) + CN(C)c1ccc(Nc2c3ccc(NC(=O)CCN4CCCC4)cc3nc3cc(NC(=O)CCN4CCCC4)ccc23)cc1
IC50 [1]: 4170 nM | IC50 [2]: 4290 nM | IC50 [3]: 5210 nM | IC50 [4]: 4330 nM | IC50 [5]: 2940 nM | IC50 [6]: 2130 nM | viability, T/C [7]: 92.1% | viability, T/C [8]: 112% | viability, T/C [9]: 94.8% | viability, T/C [10]: 86.9% | viability, T/C [11]: 58.8% | viability, T/C [12]: 22.8% | viability, T/C [13]: 114% | viability, T/C [14]: 100% | viability, T/C [15]: 98.3% | viability, T/C [16]: 86.2% | viability, T/C [17]: 56.7% | viability, T/C [18]: 26.1% | viability, T/C [19]: 95% | viability, T/C [20]: 100% | viability, T/C [21]: 96.6% | viability, T/C [22]: 79.2% | viability, T/C [23]: 68.1% | viability, T/C [24]: 28.7% | viability, T/C [25]: 89.4% | viability, T/C [26]: 72.7% | viability, T/C [27]: 87.8% | viability, T/C [28]: 79.3% | viability, T/C [29]: 59.5% | viability, T/C [30]: 24.6% | viability, T/C [31]: 78.3% | viability, T/C [32]: 68.1% | viability, T/C [33]: 69.5% | viability, T/C [34]: 60.9% | viability, T/C [35]: 51.4% | viability, T/C [36]: 24.7% | viability, T/C [37]: 64.8% | viability, T/C [38]: 68.7% | viability, T/C [39]: 58% | viability, T/C [40]: 84.2% | viability, T/C [41]: 40.2% | viability, T/C [42]: 2.3%

IC50 (curve of compound): > 10000 nM
Compound: CCCS(=O)(=O)Nc1ccc(F)c(C(=O)c2c[nH]c3ncc(-c4ccc(Cl)cc4)cc23)c1F
viability, T/C (compound 0.0316 µM): 98.5% and 105% and 90.7% | viability, T/C (compound 0.1 µM): 90.2% and 105% and 92.3% | viability, T/C (compound 0.316 µM): 111% and 124% and 116% | viability, T/C (compound 1 µM): 136% and 138% and 124% | viability, T/C (compound 3.16 µM): 148% and 137% and 134% | viability, T/C (compound 10 µM): 82% and 77.5% and 78.7%
